# What was measured:
# GRK2 = biological target: T1, GRK2 (Homo sapiens, UniProt P25098); assay: Lance Kinase Activity Assay, GRK2; conditions: biochemical Lance kinase activity assay; class symbols A-F; read-out: GRK2 LANCE Assay (IC-50)
# T1 construct: purchased Thermo Scientific
# T1 sequence (P25098 1-689): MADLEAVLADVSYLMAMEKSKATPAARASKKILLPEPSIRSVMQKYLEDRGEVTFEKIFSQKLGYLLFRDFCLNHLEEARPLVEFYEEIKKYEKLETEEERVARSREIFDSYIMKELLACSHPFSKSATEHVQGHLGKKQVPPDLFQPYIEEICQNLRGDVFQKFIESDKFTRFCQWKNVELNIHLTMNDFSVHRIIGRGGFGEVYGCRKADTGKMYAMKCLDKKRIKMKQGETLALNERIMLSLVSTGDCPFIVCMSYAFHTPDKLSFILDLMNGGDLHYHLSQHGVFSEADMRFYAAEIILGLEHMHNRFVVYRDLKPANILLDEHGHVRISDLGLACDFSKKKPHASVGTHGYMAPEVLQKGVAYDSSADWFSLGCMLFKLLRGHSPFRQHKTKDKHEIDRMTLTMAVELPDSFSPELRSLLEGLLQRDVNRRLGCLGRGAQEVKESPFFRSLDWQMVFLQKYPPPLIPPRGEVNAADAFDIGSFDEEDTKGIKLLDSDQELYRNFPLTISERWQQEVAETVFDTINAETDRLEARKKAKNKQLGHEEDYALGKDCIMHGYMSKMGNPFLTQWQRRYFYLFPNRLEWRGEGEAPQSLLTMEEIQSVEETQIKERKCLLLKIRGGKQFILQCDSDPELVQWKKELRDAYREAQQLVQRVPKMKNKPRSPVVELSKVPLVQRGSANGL
# Method: (§1) This protocol describes how the Lance Kinase Activity Assay was performed to determine IC50 values of compounds of general formula (I) against GRK5 and GRK2.
# (§2) The principle behind this enzymatic assay is based upon the phosphorylation of the Ulight-peptide substrate. It is detected by using a specific EU-labeled anti-phospho peptide antibody. The binding of the Eu labeled anti-phospho peptide antibody to the phosphorylated ULight labeled peptide gives rise to a FRET-signal. Binding of an inhibitor to the kinase prevents phosphorylation of the Ulight-substrate, resulting in a loss of FRET. In tables 2 and 3 the relevant information for these two LANCE assays is summarized.
# (§3) For every sample, 2 μl of assay buffer (50 mM HEPES pH 7,5, 10 mM MgCL2, 1 mM EGTA 0,01% Tween 20, 1% DMSO, 2 mM DTT) were transferred into a suitable assay plate (e.g. Corning #3673). Compounds were added in a concentration range from 10 μM to 0.0025 μM using an acoustic dispenser (Echo520 from Labcycte, San Jose, USA) equipped with Echo Dose Response software. After that 6 μl of kinase-substrate mix was added. Reaction was started by addition of 2 μl ATP working solution and mixed using a Bioshake 5000 microplate shaker (Q Instruments, Jena, Germany).
# (§4) After 1 h incubation at room temperature the reaction was stopped with 10 μl detection mix containing the Eu-labeled phosphospecific antibody and 10 mM EDTA. After a second incubation period of 1 h at room temperature the FRET signal was measured at 340 nm excitation, 665 nm and 615 nm emission (for the ULight-substrate and Eu-AB, respectively) with an Envision microplate reader (Perkin Elmer, Waltham, MA, USA) with 50 μs delay and 300 μs integration time. IC50 values were determined from the sigmoidal dose response curves with the software Quattro Workflow (Quattro GmbH, Munich, Germany).
# (§5) Inhibition is indicated as IC50 [nM] (“−”=not measured). Compounds having an activity designated as “A” provided an IC50≤50 nM; compounds having an activity designated as “B” provided an 50 nM<IC50≤100 nM; compounds having an activity designated as “C” provided an 100 nM<IC50≤500 nM; compounds having an activity designated as “D” provided an 500 nM<IC50≤1000 nM; compounds having an activity designated as “E” provided an 1000 nM<IC50≤10000 nM; and compounds having an activity designated as “F” provided an IC50>10000 nM.
# GRK5 = biological target: T2, GRK5 (Homo sapiens, UniProt P34947); assay: Lance Kinase Activity Assay, GRK5; conditions: biochemical Lance kinase activity assay; class symbols A-F; read-out: GRK5 LANCE Assay (IC-50)
# T2 construct: purchased Thermo Scientific
# Method: as §1, §2, §3, §4, §5
# T2 sequence (P34947 whole entry): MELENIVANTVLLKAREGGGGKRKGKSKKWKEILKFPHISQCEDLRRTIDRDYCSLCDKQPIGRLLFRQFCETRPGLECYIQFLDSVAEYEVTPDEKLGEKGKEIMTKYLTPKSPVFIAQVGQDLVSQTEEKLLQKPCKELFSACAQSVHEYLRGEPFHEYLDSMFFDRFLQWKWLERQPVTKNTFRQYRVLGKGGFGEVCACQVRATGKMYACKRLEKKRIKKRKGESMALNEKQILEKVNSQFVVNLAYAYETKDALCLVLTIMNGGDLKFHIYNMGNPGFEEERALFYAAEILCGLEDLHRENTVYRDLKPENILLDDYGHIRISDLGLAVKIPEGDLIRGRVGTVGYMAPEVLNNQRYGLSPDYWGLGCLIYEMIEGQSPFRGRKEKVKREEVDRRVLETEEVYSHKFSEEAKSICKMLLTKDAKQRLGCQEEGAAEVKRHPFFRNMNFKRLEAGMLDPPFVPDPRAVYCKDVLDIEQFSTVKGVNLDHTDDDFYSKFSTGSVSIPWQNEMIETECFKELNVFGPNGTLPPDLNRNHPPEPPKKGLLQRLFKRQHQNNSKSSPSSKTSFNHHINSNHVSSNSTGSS
IC50 (GRK2) [nM],IC50 (GRK5) [nM],Compound
1000 to 10000,50 to 100,"COc1ccc([C@@H](C)NC(=O)/C=C/c2c[nH]c3nccc(-c4ccc(NS(C)(=O)=O)cc4)c23)cc1OC [Example 226, (R,E)-N-(1-(3,4-dimethoxyphenyl)ethyl)-3-(4-(4-(methylsulfonamido)phenyl)-1H-pyrrolo[2,3-b]pyridin-3-yl)acrylamide]"
500 to 1000,≤ 50,"COc1ccc([C@@H](C)NC(=O)/C(C#N)=C/c2c[nH]c3ncc(-c4ccc(N5CCN(C)CC5)cc4)cc23)cc1OC [Example 112, (R,E)-2-cyano-N-(1-(3,4-dimethoxyphenyl)ethyl)-3-(5-(4-(4-methylpiperazin-1-yl)phenyl)-1H-pyrrolo[2,3-b]pyridin-3-yl)acrylamide]"
100 to 500,≤ 50,"C[C@@H](NC(=O)/C(C#N)=C/c1c[nH]c2ncc(-c3cnn(C)c3)cc12)c1cccc(Cl)c1 [Example 96, (R,E)-N-(1-(3-chlorophenyl)ethyl)-2-cyano-3-(5-(1-methyl-1H-pyrazol-4-yl)-1H-pyrrolo[2,3-b]pyridin-3-yl)acrylamide]"
1000 to 10000,≤ 50,"COc1ccc([C@@H](C)NC(=O)/C=C/c2c[nH]c3ncc(-c4cccc(S(=O)(=O)C5CC5)c4)cc23)cc1OC [Example 216, (R,E)-3-(5-(3-(cyclopropylsulfonyl)phenyl)-1H-pyrrolo[2,3-b]pyridin-3-yl)-N-(1-(3,4-dimethoxyphenyl)ethyl)acrylamide]"
500 to 1000,≤ 50,"COc1ccc([C@@H](C)NC(=O)/C(C#N)=C/c2c[nH]c3ncc(C)cc23)cc1OC [Example 87, (R,E)-2-cyano-N-(1-(3,4-dimethoxyphenyl)ethyl)-3-(5-methyl-1H-pyrrolo[2,3-b]pyridin-3-yl)acrylamide]"
500 to 1000,100 to 500,"C[C@@H](NC(=O)/C(C#N)=C/c1c[nH]c2ncc(Cl)cc12)c1ccc(F)cc1 [Example 76, (R,E)-3-(5-chloro-1H-pyrrolo[2,3-b]pyridin-3-yl)-2-cyano-N-(1-(4-fluorophenyl)ethyl)acrylamide]"
1000 to 10000,≤ 50,COc1ccc([C@@H](C)NC(=O)/C=C/c2c[nH]c3ncc(-c4cccc(C(N)=O)c4)cc23)cc1OC [Example 189]
> 10000,100 to 500,"COc1ccc([C@@H](C)NC(=O)/C(C#N)=C/c2c[nH]c3ncc(C(=O)N4CCN(C)CC4)cc23)cc1OC [Example 83, (R,E)-2-cyano-N-(1-(3,4-dimethoxyphenyl)ethyl)-3-(5-(4-methylpiperazine-1-carbonyl)-1H-pyrrolo[2,3-b]pyridin-3-yl)acrylamide]"
1000 to 10000,≤ 50,"COc1ccc([C@@H](C)NC(=O)/C=C/c2c[nH]c3ncc(-c4cccc(CNC(C)=O)c4)cc23)cc1OC [Example 203, (R,E)-3-(5-(3-(acetamidomethyl)phenyl)-1H-pyrrolo[2,3-b]pyridin-3-yl)-N-(1-(3,4-dimethoxyphenyl)ethyl)acrylamide]"
1000 to 10000,≤ 50,COc1ccc([C@@H](C)NC(=O)/C(C#N)=C/c2c[nH]c3ncc(-c4cnn(CC(C)O)c4)cc23)cc1OC (some centres unmarked) [Example 157]
1000 to 10000,500 to 1000,"CS(=O)(=O)Nc1ccccc1CNC(=O)/C(C#N)=C/c1c[nH]c2ncccc12 [Example 42, (E)-2-cyano-N-(2-(methylsulfonamido)benzyl)-3-(1H-pyrrolo[2,3-b]pyridin-3-yl)acrylamide]"
> 10000,50 to 100,"COc1ccc([C@@H](C)NC(=O)/C=C/c2c[nH]c3ncc(-c4c(C)nn(C)c4C)cc23)cc1OC [Example 209, (R,E)-N-(1-(3,4-dimethoxyphenyl)ethyl)-3-(5-(1,3,5-trimethyl-1H-pyrazol-4-yl)-1H-pyrrolo[2,3-b]pyridin-3-yl)acrylamide]"
1000 to 10000,≤ 50,"COc1ccc([C@@H](C)NC(=O)/C=C/c2c[nH]c3ncc(-c4cccc(CS(C)(=O)=O)c4)cc23)cc1OC [Example 217, (R,E)-N-(1-(3,4-dimethoxyphenyl)ethyl)-3-(5-(3-((methylsulfonyl)methyl)phenyl)-1H-pyrrolo[2,3-b]pyridin-3-yl)acrylamide]"

# — patent US20240294522A1 (Lead Discovery Center GmbH, priority 2021, published 2024)
